How the values were obtained:
Zucker Fatty rats = experiment: Evaluation of hypoglycemic action (blood glucose levels after oral gavage); format: in vivo; conditions: gavage 3 mg/kg, HCl salt form, 2 or 4 hours after dosing, free access to feed
Experimental: Zucker Fatty rats (male, 11-19 week-old, Charles River Japan, Inc.) known to spontaneously develop hyperglycemia were randomly assigned to the groups (6 per group). The animals were individually housed in a polycarbonate cage and allowed to drink water freely from a watering bottle. The animals in the compound groups were gavaged with compound No. 10, 87, 19, or 69 at the dose of 3 mg/kg. These compounds were used as HCl salt form thereof, converted by the method according to Example 3, step 6 from TFA salt form thereof upon the necessity. The animals in the control group were only treated with the vehicle (0.5% methylcellulose). Animals were allowed free access to the feed (CRF-1, Oriental Yeast Co., Ltd.) during the experiment. An aspirate of the blood (6 μL) was collected from the tail vein on the time point of immediately before dosing (time 0) as well as 2, 4, and 8 hours after dosing. The blood glucose levels were determined with ACCU-CHEK Aviva (Roche Diagnostics K.K.).

[1] = biological target: recombinant human enteropeptidase (Homo sapiens (Human), UniProt P98073); experiment: Measurement of enteropeptidase inhibitory activity; format: biochemical; conditions: substrate Gly-Asp-Asp-Asp-Asp-Lys-β-Naphtylamide, Tris-HCl pH 8.0, Dixon plot
Experimental: Using a 96 well plate (#3915, Costar), a test compound (25 μL), 400 mM Tris-HCl buffer (pH 8.0, 25 μL) and 0.5 mg/mL, fluorescence enzyme substrate (Gly-Asp-Asp-Asp-Asp-Lys-β-Naphtylamide, 25 μL) were mixed, and recombinant human enteropeptidase (R&D Systems, Inc., 25 μL) was added. Using a fluorescence plate reader fmax (Molecular Devices, Inc.), the reaction rate was measured from the time-course changes at excitation wavelength 320 nm and fluorescence wavelength 405 nm. The Ki value was calculated from the concentration of the test compound, reciprocal of reaction rate, and Km value of the enzyme substrate, and by using Dixon plot.

human trypsin [2] = biological target: human trypsin (Homo sapiens, UniProt P07477); experiment: Measurement of trypsin inhibitory activity; format: biochemical; conditions: substrate Boc-Phe-Ser-Arg-AMC, Tris-HCl pH 8.0, Dixon plot
Experimental: (§1) Using a 96 well plate (#3915, Costar), a test compound (25 μL) was mixed with 20 μM fluorescence enzyme substrate (Boc-Phe-Ser-Arg-AMC, 50 μL) mixed with 200 mM Tris-HCl buffer (pH 8.0), and human trypsin (Sigma, 25 μL) was added. Using a fluorescence plate reader fmax (Molecular Devices, Inc.), the reaction rate was measured from the time-course changes at excitation wavelength 355 nm and fluorescence wavelength 460 nm. The Ki value was calculated from the concentration of the test compound, reciprocal of reaction rate, and Km value of the enzyme substrate, and by using Dixon plot.

human trypsin [3] = experiment: Measurement of trypsin inhibitory activity; format: biochemical; conditions: substrate Boc-Phe-Ser-Arg-AMC, Tris-HCl pH 8.0, Dixon plot
Experimental: as §1

Sequence of recombinant human enteropeptidase (P98073 whole entry): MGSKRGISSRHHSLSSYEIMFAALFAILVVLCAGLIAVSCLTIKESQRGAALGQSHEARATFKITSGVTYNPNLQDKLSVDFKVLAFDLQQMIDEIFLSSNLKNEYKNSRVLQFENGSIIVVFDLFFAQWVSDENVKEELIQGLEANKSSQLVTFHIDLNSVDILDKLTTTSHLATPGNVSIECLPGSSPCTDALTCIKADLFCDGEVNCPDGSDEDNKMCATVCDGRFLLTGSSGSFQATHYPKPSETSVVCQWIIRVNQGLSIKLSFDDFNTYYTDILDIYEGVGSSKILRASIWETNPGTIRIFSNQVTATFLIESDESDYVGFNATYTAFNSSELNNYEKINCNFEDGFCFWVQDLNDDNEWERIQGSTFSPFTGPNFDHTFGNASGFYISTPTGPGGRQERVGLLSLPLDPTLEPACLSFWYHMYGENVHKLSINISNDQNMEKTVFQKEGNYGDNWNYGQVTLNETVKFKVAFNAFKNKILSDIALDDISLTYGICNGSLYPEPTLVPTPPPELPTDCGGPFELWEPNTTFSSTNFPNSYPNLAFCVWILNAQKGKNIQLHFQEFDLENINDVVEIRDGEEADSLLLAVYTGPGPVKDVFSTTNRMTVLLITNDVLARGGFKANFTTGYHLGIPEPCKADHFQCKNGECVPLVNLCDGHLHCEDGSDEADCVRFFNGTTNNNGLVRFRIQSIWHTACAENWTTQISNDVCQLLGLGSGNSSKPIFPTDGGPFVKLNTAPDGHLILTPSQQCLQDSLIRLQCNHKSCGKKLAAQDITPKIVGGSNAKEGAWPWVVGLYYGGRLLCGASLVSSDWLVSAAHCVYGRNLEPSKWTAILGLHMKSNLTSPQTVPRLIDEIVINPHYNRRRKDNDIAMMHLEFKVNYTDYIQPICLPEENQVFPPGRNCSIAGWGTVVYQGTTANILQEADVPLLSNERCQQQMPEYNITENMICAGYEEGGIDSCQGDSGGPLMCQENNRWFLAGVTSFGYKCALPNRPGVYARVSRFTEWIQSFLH

Compound | Ki [1] [pM] | Ki (human trypsin [2]) [pM] | Ki (human trypsin [3]) [pM] | blood glucose levels compared with vehicle group (Zucker Fatty rats)
CCCN(CC(=O)O)C(=O)C(C)(C)Cc1ccc(C(=O)Oc2ccc(C(=N)N)cc2F)s1.Cl [Compound 10, N-{3-[5-(4-amidino-2-fluorophenoxycarbonyl)thiophen-2-yl]-2,2-dimethylpropionyl}-N-propylglycine hydrochloride] |  |  |  | significantly decreased
CCC(CC)(Cc1ccc(C(=O)Oc2ccc(C(=N)N)cc2F)s1)C(=O)N[C@@H](CC(=O)O)C(=O)O.Cl [Compound 19] |  |  |  | significantly decreased
CC(C)(Cc1ccc(C(=O)Oc2ccc(C(=N)N)cc2F)s1)C(=O)N[C@@H](C(=O)O)c1ccc(O)cc1.O=C(O)C(F)(F)F [Compound 69] |  |  |  | significantly decreased
CC(C)(Cc1ccc(C(=O)Oc2ccc(C(=N)N)cc2F)s1)C(=O)Nc1cc(O)cc(C(=O)O)c1 [Compound 74] | 580 | 180 |  | 
CC(C)(Cc1ccc(C(=O)Oc2ccc(C(=N)N)cc2F)s1)C(=O)N[C@H]1CCC[C@@H](C(=O)O)C1 [Compound 85] | 810 | 690 |  | 
CC(C)(Cc1ccc(C(=O)Oc2ccc(C(=N)N)cc2F)s1)C(=O)O.O=C(O)C(F)(F)F [Compound 87] | 390 | 1300 |  | significantly decreased
CC(C)(Cc1ccc(C(=O)Oc2ccc(C(=N)N)cc2F)s1)C(=O)N1CC[C@H](C(=O)O)C1 [Compound 91] | 900 | 1330 |  | 
CC(C)(Cc1ccc(C(=O)Oc2ccc(C(=N)N)cc2F)s1)C(=O)N[C@H](C(=O)O)c1ccc(O)cc1 [Compound 92] | 670 |  | 960 | 
CC(C)(Cc1ccc(C(=O)Oc2ccc(C(=N)N)cc2F)s1)C(=O)N1C[C@H](O)C[C@H]1C(=O)O [Compound 93] | 300 |  | 900 | 

More lines, main results first:

Ki [1] [pM] | Ki (human trypsin [2]) [pM] | Ki (human trypsin [3]) [pM] | Compound | blood glucose levels compared with vehicle group (Zucker Fatty rats)
3520 | 5320 |  | CCC(CC)(Cc1ccc(C(=O)Oc2ccc(C(=N)N)cc2F)s1)C(=O)Nc1ccc(O)c(C(=O)O)c1 [Compound 82] | 
720 |  | 1420 | CCC(CC)(Cc1ccc(C(=O)Oc2ccc(C(=N)N)cc2F)s1)C(=O)NCC(=O)O [Compound 83] | 
430 |  | 3270 | CCC(CC)(Cc1ccc(C(=O)Oc2ccc(C(=N)N)cc2F)s1)C(=O)N[C@@H](CCC(=O)O)c1nnn[nH]1 [Compound 84] | 
240 | 3400 |  | CCC(CC)(Cc1ccc(C(=O)Oc2ccc(C(=N)N)cc2F)s1)C(=O)N[C@@H](Cc1nn[nH]n1)C(=O)O [Compound 86] | 
1000 | 2870 |  | CCC(CC)(Cc1ccc(C(=O)Oc2ccc(C(=N)N)cc2F)s1)C(=O)N1CC(C(=O)O)C1 [Compound 88] | 
840 |  | 1170 | CCC(CC)(Cc1ccc(C(=O)Oc2ccc(C(=N)N)cc2F)s1)C(=O)Nc1cccc(S(=O)(=O)O)c1 [Compound 89] | 
550 | 1700 |  | CCC(CC)(Cc1ccc(C(=O)Oc2ccc(C(=N)N)cc2F)s1)C(=O)Nc1ccc(C(=O)O)c(C(=O)O)c1 [Compound 90] | 
1300 |  | 1980 | CC(C)(Cc1ccc(C(=O)Oc2ccc(C(=N)N)cc2F)s1)C(=O)N[C@H]1CC=CC[C@H]1C(=O)O [Compound 94] | 
